Biological target: ATP-dependent translocase ABCB1 (Homo sapiens, UniProt P08183)
Test: TP_TRANSPORTER: transepithelial transport (basal to apical) in Caco-2 cells
Assay type: functional, cell-based

Sequence of ATP-dependent translocase ABCB1 (P08183 whole entry): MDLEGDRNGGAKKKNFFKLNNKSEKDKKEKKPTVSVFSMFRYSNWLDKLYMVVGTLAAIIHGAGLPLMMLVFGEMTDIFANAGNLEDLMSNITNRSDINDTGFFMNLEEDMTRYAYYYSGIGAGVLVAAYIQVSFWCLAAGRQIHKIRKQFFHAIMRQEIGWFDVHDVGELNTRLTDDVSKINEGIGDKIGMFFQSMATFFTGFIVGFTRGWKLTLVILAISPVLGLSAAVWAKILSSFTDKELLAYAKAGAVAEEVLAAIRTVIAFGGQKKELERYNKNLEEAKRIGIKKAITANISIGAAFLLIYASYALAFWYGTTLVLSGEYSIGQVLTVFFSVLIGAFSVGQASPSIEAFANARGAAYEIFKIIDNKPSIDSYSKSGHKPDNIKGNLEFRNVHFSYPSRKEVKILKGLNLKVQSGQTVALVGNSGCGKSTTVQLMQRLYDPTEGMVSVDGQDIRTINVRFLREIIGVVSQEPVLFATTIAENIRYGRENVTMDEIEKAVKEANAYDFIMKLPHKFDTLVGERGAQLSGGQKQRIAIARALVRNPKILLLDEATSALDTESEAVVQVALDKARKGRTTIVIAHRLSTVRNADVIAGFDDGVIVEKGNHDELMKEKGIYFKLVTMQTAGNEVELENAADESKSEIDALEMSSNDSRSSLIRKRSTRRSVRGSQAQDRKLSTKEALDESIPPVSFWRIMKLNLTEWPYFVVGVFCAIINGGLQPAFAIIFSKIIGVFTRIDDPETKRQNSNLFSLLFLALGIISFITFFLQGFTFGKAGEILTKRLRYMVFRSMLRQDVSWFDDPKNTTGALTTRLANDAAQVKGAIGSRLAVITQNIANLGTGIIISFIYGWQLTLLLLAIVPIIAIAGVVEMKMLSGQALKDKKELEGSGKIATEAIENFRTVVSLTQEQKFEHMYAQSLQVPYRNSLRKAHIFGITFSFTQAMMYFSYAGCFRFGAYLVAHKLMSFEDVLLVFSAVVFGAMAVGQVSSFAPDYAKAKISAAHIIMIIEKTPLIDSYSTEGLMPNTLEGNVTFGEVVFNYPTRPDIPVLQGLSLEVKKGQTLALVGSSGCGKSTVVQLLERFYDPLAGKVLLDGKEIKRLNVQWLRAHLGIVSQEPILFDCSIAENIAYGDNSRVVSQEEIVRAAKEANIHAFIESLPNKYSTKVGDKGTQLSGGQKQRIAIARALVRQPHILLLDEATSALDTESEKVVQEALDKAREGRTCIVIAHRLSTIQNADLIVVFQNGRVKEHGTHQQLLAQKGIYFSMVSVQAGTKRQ

## CNC(=C[N+](=O)[O-])NCCSCc1ccc(CN(C)C)o1 [RANITIDINE]
  Activity: substrate [+]
